ChEMBL document CHEMBL2010711, “Synthesis and comparative evaluation of 4-oxa- and 4-aza-podophyllotoxins as antiproliferative microtubule destabilizing agents” (Bioorg Med Chem Lett, 2012)

How the values were obtained:
[1] = test system: SF-539; assay: Cytotoxicity against human SF539 cells after 48 hrs by trypan blue dye exclusion assay; assay type: functional; details: SF-539, 48 h
[2] = test system: PC-3; assay: Cytotoxicity against human PC3 cells after 48 hrs by trypan blue dye exclusion assay; assay type: functional; details: PC-3, 48 h
[3] = test system: NCI-H322M; assay: Cytotoxicity against human NCI-H322M cells after 48 hrs by trypan blue dye exclusion assay; assay type: functional
[4] = test system: NCI-H23; assay: Cytotoxicity against human NCI-H23 cells after 48 hrs by trypan blue dye exclusion assay; assay type: functional; details: NCI-H23, 48 h
[5] = test system: SN12C; assay: Cytotoxicity against human SN12C cells after 48 hrs by trypan blue dye exclusion assay; assay type: functional
[6] = test system: Jurkat; assay: Cytotoxicity against human Jurkat cells; assay type: functional, cell-based
[7] = test system: MDA-MB-435; assay: Cytotoxicity against human MDA-MB-435 cells after 48 hrs by trypan blue dye exclusion assay; assay type: functional; details: MDA-MB-435, 48 h
[8] = test system: SNB-75; assay: Cytotoxicity against human SNB75 cells after 48 hrs by trypan blue dye exclusion assay; assay type: functional; details: SNB-75, 48 h
[9] = test system: SK-OV-3; assay: Cytotoxicity against human SKOV3 cells after 48 hrs by trypan blue dye exclusion assay; assay type: functional; details: SK-OV-3, 48 h
[10] = test system: IGROV-1; assay: Cytotoxicity against human IGROV1 cells after 48 hrs by trypan blue dye exclusion assay; assay type: functional; details: IGROV-1, 48 h
[11] = test system: MDA-MB-468; assay: Cytotoxicity against human MDA-MB-468 cells after 48 hrs by trypan blue dye exclusion assay; assay type: functional; details: MDA-MB-468, 48 h
[12] = test system: SF-295; assay: Cytotoxicity against human SF295 cells after 48 hrs by trypan blue dye exclusion assay; assay type: functional; details: SF-295, 48 h
[13] = test system: UACC-62; assay: Cytotoxicity against human UACC62 cells after 48 hrs by trypan blue dye exclusion assay; assay type: functional; details: UACC-62, 48 h
[14] = test system: SNB-19; assay: Cytotoxicity against human SNB19 cells after 48 hrs by trypan blue dye exclusion assay; assay type: functional; details: SNB-19, 48 h
[15] = test system: SK-MEL-2; assay: Cytotoxicity against human SK-MEL-2 cells after 48 hrs by trypan blue dye exclusion assay; assay type: functional; details: SK-MEL-2, 48 h
[16] = test system: DU-145; assay: Cytotoxicity against human DU145 cells after 48 hrs by trypan blue dye exclusion assay; assay type: functional; details: DU-145, 48 h

With `COc1ccc2c(c1)OC1=C(C(=O)OC1)C2c1cc(OC)c2c(c1)OCO2` (stereo unspecified) as the compound, how does the GI50 [1] read?
The GI50 was 34.4 nM.

And the GI50 [2]?
The GI50 was 40.9 nM.

What about the GI50 [3] of the same compound?
The GI50 was 71.3 nM.

What about the GI50 [4] of the same compound?
Its GI50 is 23.5 nM.

And the GI50 [5]?
The GI50 was 62.5 nM.

And the IC50 [6]?
The IC50 was 55 nM.

What about the GI50 [7] of the same compound?
The GI50 was < 10 nM.

And the GI50 [8]?
Its GI50 is 13.9 nM.

And the GI50 [9]?
The GI50 was 29.3 nM.

What about the GI50 [10] of the same compound?
The GI50 was 62.4 nM.

And the GI50 [11]?
Its GI50 is 26.3 nM.

And the GI50 [12]?
Its GI50 is 20.2 nM.

And the GI50 [13]?
The GI50 was 35 nM.

And the GI50 [14]?
The GI50 was 47.9 nM.

What about the GI50 [15] of the same compound?
Its GI50 is 34.3 nM.

And the GI50 [16]?
Its GI50 is 35.2 nM.
